# According to paper PMC10150365 (Journal of Medicinal Chemistry, 2023):
# Several values for one entry are separate records, joined by “and”; a condition that tells them apart may be missing. Equal values may be shown once. Read-outs that look alike come from different tables or passages of the source. Marks after values point to notes of the source that are not given here.
# Key:
# SK-OV-3 = assay: cells; type: cell-based, human
# physchem [1] = conditions: pH 7.4
# physchem [2] = conditions: pH 7.4; remark: listed apart in the source
# in vitro [3] = type: in vitro ADME, mouse; conditions: male, CD1, mouse, microsomes, pH 7.4; n = 1, fraction unbound assumed 1; read-out: Microsome Clint, mouse (MLM)
# in vitro [4] = type: in vitro ADME; conditions: male, Sprague Dawley, rat, microsomes, pH 7.4; n = 1, fraction unbound assumed 1; read-out: Microsome Clint, rat (RLM)
# in vitro [5] = type: in vitro ADME; conditions: both sexes, human, microsomes, pH 7.4; n = 1, fraction unbound assumed 1; read-out: Microsome Clint, human (HLM)
# [6] = iv PK in CF1 wild-type and P-gp-knockout mice; type: in vivo, mouse; conditions: mouse, whole blood, iv, 5 mg/kg, read-out: Vss
# P-gp = assay: iv PK in CF1 wild-type and P-gp-knockout mice; type: in vivo, mouse; conditions: 5 mg/kg iv, 90% CI
# Mouse blood PK (BALB/c) = conditions: for iv Cltb / Free Cav^0–24h / CLu / Vdu / AUC / Fmax: BALB/c mice; for iv Cltb: iv 5 mg/kg (18: 1 mg/kg); for Free Cav^0–24h: AUC^inf/24*fub; for CLu: CLtb/fub; for Vdu: Vss/fub; for Vd / half-life at 24 h: iv
# [7] = Plasma protein binding and blood-to-plasma ratio; conditions: for fub: BALB/c mouse blood, fub = fup/B:P; for Plasma, fup: BALB/c mouse, 90% CI
# in vitro [8] = type: in vitro ADME; conditions: mouse; for hepatocyte CLint at 1 h, 1 µM: hepatocytes, n = 1, read-out: Mouse Heps CLint; for Pred. in vivo CLu from Heps: fraction unbound in assay assumed 0.4 or 0.2
# [9] = Free fraction in CellTiter-Blue assay medium (dialysis); type: in vitro ADME; conditions: dialysis from CellTiter-Blue assay medium; 90% CI
# [10] = for FaSSGF Concentration, replicates 1-3: pH 1.6, individual replicates; for FaSSIF Concentration, replicates 1-3 / FeSSIF Concentration, replicates 1-3: pH 6.5, individual replicates
# physchem [11] = assay: physchem
# [12] = Homo sapiens, SK-OV-3, 96 h; read-out: SK-OV-3 pGI50 ± SEM (n) (converted)
# [13] = Homo sapiens, SK-OV-3; 96 h, CellTiter-Blue, geometric mean; read-out: SK-OV-3 GI50
# [14] = female, BALB/c, mouse, in vivo, po, 5 mg/kg
# [15] = female, BALB/c, mouse, in vivo, po, 5 mg/kg, AUCu^0–6h, AUC*fub
# [16] = female, BALB/c, mouse, in vivo, po, 5 mg/kg, po AUC^0–6h, po 5 mg/kg, 90% CI
# [17] = female, BALB/c, mouse, whole blood, po, 5 mg/kg
# [18] = pH 1.6, Thermodynamic solubility FaSSGF (mean), pH 1.6, 37 °C, 1 mg/mL (top limit of assay)
# [19] = pH 6.5, Thermodynamic solubility FaSSIF (mean), pH 6.5, 37 °C, 1 mg/mL
smiles,measurement,setting,value
"Cc1ccc(NC(=O)c2ccc3c(c2)OCCO3)cc1NC(=O)c1ccc2nc(CN3CCCC3C)ccc2c1 (racemic) [Compound 13, Racemic-N-(5-(2,3-Dihydrobenzo[b][1,4]dioxine-6-carboxamido)-2-methylphenyl)-2-((2-methylpyrrolidin-1-yl)methyl)quinoline-6-carboxamide]",GI50,SK-OV-3; [12],7.08 nM
same,GI50,SK-OV-3; [13],7.1 nM
same,chromatographic logD,physchem [1],2.3
same,"solubility kinetic at 2 h, 100 µM",physchem [2],50 µM
"Cc1ccc(NC(=O)c2ccc3c(c2)OCCO3)cc1NC(=O)c1ccc2nc(CN3CCCC3)ccc2c1 [Compound 11, N-(5-(2,3-Dihydrobenzo[b][1,4]dioxine-6-carboxamido)-2-methylphenyl)-2-(pyrrolidin-1-ylmethyl)quinoline-6-carboxamide]",GI50,SK-OV-3; [12],6.17 nM
same,GI50,SK-OV-3; [13],6.2 nM
same,microsomal CLint,in vitro [3],21 µL/min/mg
same,"microsomal CLint at 0.75 h, 1 µM",in vitro [4],20 µL/min/mg
same,"microsomal CLint at 0.75 h, 1 µM",in vitro [5],23 µL/min/mg
same,chromatographic logD,physchem [1],1.9
same,"solubility kinetic at 2 h, 100 µM",physchem [2],40 µM
"Cc1ccc(NC(=O)c2ccc3c(c2)OCCO3)cc1NC(=O)c1ccc2nc(CN(C)C)ccc2c1 [Compound 12, N-(5-(2,3-Dihydrobenzo[b][1,4]dioxine-6-carboxamido)-2-methylphenyl)-2-((dimethylamino)methyl)quinoline-6-carboxamide]",GI50,SK-OV-3; [12],11.7 nM
same,GI50,SK-OV-3; [13],12 nM
same,chromatographic logD,physchem [1],1.4
same,"solubility kinetic at 2 h, 100 µM",physchem [2],50 µM
"Cc1ccc(NC(=O)c2ccc3c(c2)OCCO3)cc1NC(=O)c1ccc2nc(CN3CCCCC3)ccc2c1 [Compound 14, N-(5-(2,3-Dihydrobenzo[b][1,4]dioxine-6-carboxamido)-2-methylphenyl)-2-(piperidin-1-ylmethyl)quinoline-6-carboxamide]",GI50,SK-OV-3; [12],21.9 nM
same,GI50,SK-OV-3; [13],73 nM
same,"solubility kinetic at 2 h, 100 µM",physchem [2],2 µM
"Cc1ccc(NC(=O)c2ccc3c(c2)OCCO3)cc1NC(=O)c1ccc2nc(OCCN3CCCCC3)ccc2c1 [Compound 17, N-(5-(2,3-Dihydrobenzo[b][1,4]dioxine-6-carboxamido)-2-methylphenyl)-2-(2-(piperidin-1-yl)ethoxy)quinoline-6-carboxamide]",GI50,"SK-OV-3; Homo sapiens, SK-OV-3, 96 h, read-out: SK-OV-3 GI50",1.1 nM
same,GI50,"SK-OV-3; Homo sapiens, SK-OV-3, 96 h, read-out: SK-OV-3 pGI50 ± SEM (n) (converted)",1.07 nM
same,Vd,"[6]; CF1 mdr1a P-gp deficient (CF1-Abcb1amds), CF1^PGP-KO mice",3.6 L/kg
same,Vd,"[6]; CF1 wild type, CF1^WT mice",4.7 L/kg
same,Cltb,P-gp; CF1^PGP-KO mice,38 (43-37) mL/min/kg
same,Cltb,P-gp; CF1^WT mice,47 (62-35) mL/min/kg
same,iv Cltb,Mouse blood PK (BALB/c); 90% CI,40 (48–32) mL/min/kg
same,Free Cav^0–24h,Mouse blood PK (BALB/c); po,0.83 nM
same,CLu,Mouse blood PK (BALB/c),2700 mL/min/kg
same,Vdu,Mouse blood PK (BALB/c),340 L/kg
same,Tmax at 24 h,Mouse blood PK (BALB/c); [14],2.3 h
same,bioavailability at 24 h,Mouse blood PK (BALB/c); [14],24%
same,AUC,Mouse blood PK (BALB/c); [15],0.012 µM·h
same,AUC,Mouse blood PK (BALB/c); [16],0.83 µM·h
same,Vd,"Mouse blood PK (BALB/c); female, BALB/c, mouse, whole blood",5.1 L/kg
same,Cmax,Mouse blood PK (BALB/c); [17],180 nM
same,Tmax,Mouse blood PK (BALB/c); [17],2 h
same,fub,[7],0.015
same,"Plasma, fup",[7],0.022 (0.027-0.017)
"CC(C)N1CCN(Cc2ccc3cc(C(=O)Nc4cc(NC(=O)c5ccc6c(c5)OCCO6)ccc4Cl)ccc3n2)CC1 [Compound 18, N-(2-Chloro-5-(2,3-dihydrobenzo[b][1,4]dioxine-6-carboxamido)phenyl)-2-((4-isopropylpiperazin-1-yl)methyl)quinoline-6-carboxamide]",GI50,SK-OV-3; [12],14.8 nM
same,GI50,SK-OV-3; [13],15 nM
same,"hepatocyte CLint at 1 h, 1 µM",in vitro [8],28 µL/min/1e6 cells
same,Pred. in vivo CLu from Heps,in vitro [8],930 ^i mL/min/kg
same,"Assay medium, fua",[9],0.16 (0.18-0.15)
same,chromatographic logD,physchem [1],2.3
same,"solubility kinetic at 2 h, 100 µM",physchem [2],70 µM
same,Fmax,Mouse blood PK (BALB/c),63%
same,iv Cltb,Mouse blood PK (BALB/c); 90% CI,33 (35–31) mL/min/kg
same,Free Cav^0–24h,Mouse blood PK (BALB/c); po,1.6 nM
same,CLu,Mouse blood PK (BALB/c),3000 mL/min/kg
same,Vdu,Mouse blood PK (BALB/c),450 L/kg
same,Vd,"Mouse blood PK (BALB/c); female, BALB/c, mouse, in vivo",4.9 L/kg
same,half-life at 24 h,"Mouse blood PK (BALB/c); female, BALB/c, mouse, in vivo, 1 mg/kg",2 h
same,Cmax,Mouse blood PK (BALB/c); [14],550 nM
same,Tmax at 24 h,Mouse blood PK (BALB/c); [14],1.7 h
same,bioavailability at 24 h,Mouse blood PK (BALB/c); [14],63%
same,AUC,Mouse blood PK (BALB/c); [15],0.026 µM·h
same,AUC,Mouse blood PK (BALB/c); [16],2.4 µM·h
same,fub,[7],0.011
same,"Plasma, fup",[7],0.012 (0.014-0.010)
"O=C(Nc1ccc(Cl)c(NC(=O)c2ccc3nc(CN4CCNCC4)ccc3c2)c1)c1ccc2c(c1)OCCO2 [Compound 19, N-(2-Chloro-5-(2,3-dihydrobenzo[b][1,4]dioxine-6-carboxamido)phenyl)-2-(piperazin-1-ylmethyl)quinoline-6-carboxamide]",GI50,SK-OV-3; [12],11.5 nM
same,GI50,SK-OV-3; [13],12 nM
"CN1CCN(Cc2ccc3cc(C(=O)Nc4cc(NC(=O)c5ccc6c(c5)OCCO6)ccc4Cl)ccc3n2)CC1 [Compound 20, N-(2-Chloro-5-(2,3-dihydrobenzo[b][1,4]dioxine-6-carboxamido)phenyl)-2-((4-methylpiperazin-1-yl)methyl)quinoline-6-carboxamide]",GI50,SK-OV-3; [12],19.1 nM
same,GI50,SK-OV-3; [13],19 nM
same,chromatographic logD,physchem [1],2.1
same,"solubility kinetic at 2 h, 100 µM",physchem [2],30 µM
"CCN1CCN(Cc2ccc3cc(C(=O)Nc4cc(NC(=O)c5ccc6c(c5)OCCO6)ccc4Cl)ccc3n2)CC1 [Compound 21, N-(2-Chloro-5-(2,3-dihydrobenzo[b][1,4]dioxine-6-carboxamido)phenyl)-2-((4-ethylpiperazin-1-yl)methyl)quinoline-6-carboxamide]",GI50,SK-OV-3; [12],11 nM
same,GI50,SK-OV-3; [13],11 nM
same,"hepatocyte CLint at 1 h, 1 µM",in vitro [8],71 µL/min/1e6 cells
same,Pred. in vivo CLu from Heps,in vitro [8],1400 ^i mL/min/kg
same,"Assay medium, fua",[9],0.15 (0.15-0.14)
same,chromatographic logD,physchem [1],2.2
same,"solubility kinetic at 2 h, 100 µM",physchem [2],50 µM
same,Fmax,Mouse blood PK (BALB/c),69%
same,Free Cav^0–24h,Mouse blood PK (BALB/c); po,1.3 nM
same,CLu,Mouse blood PK (BALB/c),5300 mL/min/kg
same,Vdu,Mouse blood PK (BALB/c),1100 L/kg
same,bioavailability,"Mouse blood PK (BALB/c); female, BALB/c, mouse, in vivo",100%
same,Vd,"Mouse blood PK (BALB/c); female, BALB/c, mouse, in vivo",5.7 L/kg
same,half-life at 24 h,"Mouse blood PK (BALB/c); female, BALB/c, mouse, in vivo, 5 mg/kg",2.3 h
same,Cmax,Mouse blood PK (BALB/c); [14],880 nM
same,Tmax at 24 h,Mouse blood PK (BALB/c); [14],1.7 h
same,bioavailability,Mouse blood PK (BALB/c); [14],96%
same,AUC,Mouse blood PK (BALB/c); [15],0.02 µM·h
same,AUC,Mouse blood PK (BALB/c); [16],3.9 µM·h
same,fub,[7],0.0053
same,"Plasma, fup",[7],0.013 (0.015-0.011)
O=c1[nH]c2ccccc2n1C1CCN(CCCC(c2ccc(F)cc2)c2ccc(F)cc2)CC1 [Pimozide],"FaSSGF Concentration, replicates 1-3",[10],0.087 mg/mL and 0.092 mg/mL and 0.090 mg/mL
same,"FaSSIF Concentration, replicates 1-3",[10],0.004 mg/mL and 0.003 mg/mL
same,"FeSSIF Concentration, replicates 1-3",[10],0.018 mg/mL and 0.008 mg/mL and 0.007 mg/mL
same,solubility thermodynamic,physchem [11]; [18],90 µg/mL
same,solubility thermodynamic,physchem [11]; [19],4 µg/mL
CC(C)NCC(O)COc1cccc2ccccc12 (centres unmarked) [Propranolol],"FaSSGF Concentration, replicates 1-3",[10],1.246 mg/mL and 1.094 mg/mL and 1.002 mg/mL
same,"FaSSIF Concentration, replicates 1-3",[10],0.853 mg/mL and 1.047 mg/mL and 0.931 mg/mL
same,"FeSSIF Concentration, replicates 1-3",[10],1.669 mg/mL and 1.812 mg/mL and 1.465 mg/mL
same,solubility thermodynamic,physchem [11]; [18],1110 µg/mL
same,solubility thermodynamic,physchem [11]; [19],944 µg/mL
